Measured values from patent US20230135093A1, “TRIAZOLYL DERIVATIVES AS GABA A ALPHA5 PAM” (Hoffmann-La Roche Inc., priority 2020, published 2023).

Legend:
h-GABA-A α5β3γ2 [1] = target: T1, h-GABA-A α5β3γ2 (Homo sapiens, UniProt P18507+P31644); test: Two-electrode voltage clamp electrophysiology in Xenopus oocytes expressing GABAA receptors (modulation of GABA EC20 current); assay type: cell-based; conditions: for Fold increase: positive controls
T1 construct: expressed in transfected cells; host or cells: Xenopus laevis oocytes, micro-injected with subunit RNA
Protocol: Xenopus laevis oocytes at maturation stages V-VI were used for the expression of cloned mRNA encoding GABAA receptor subunits. Oocytes ready for RNA micro-injection were bought from Ecocyte, Castrop-Rauxel, Germany and stored in modified Barth's medium (composition in mM: NaCl 88, KCl 1, NaHCO3 2.4, HEPES 10, MgSO4 0.82, CaNO3 0.33, CaCl2 0.33, pH=7.5) at 20° C. until the experiment.
Oocytes were plated in 96-well plates to be used in an automated instrument (Robo-ocyte, MultiChannelSystems, Reutlingen, Germany) for microinjection and electrophysiological recordings. Approximately 50 nl of an aqueous solution containing the RNA transcripts for the subunits of the desired GABAA receptor was injected into each oocyte. RNA concentrations ranged between 0.3 and 16 ng/μl/subunit and were adjusted in pilot experiments to obtain GABA responses of a suitable size and a maximal effect of the reference modulator, Beta-CCM (3-CCM), a betacarboline negative allosteric modulator (NAM) at the GABAA receptor benzodiazepine (BZD) binding site or Midazolam, a benzodiazepine positive allosteric modulator (PAM) at the GABAA receptor benzodiazepine (BZD) binding site. The concentration of the γ2 subunit encoding RNA usually was 5- to 10-fold higher than the RNAs encoding the other subunits. Oocytes were kept in modified Barth's medium (composition in mM: NaCl 88, KCl 1, NaHCO3 4, HEPES 10, MgSO4 0.82, CaNO3 0.33, CaCl2 0.33, pH=7.5) at 20° C. until the experiment.
Electrophysiological experiments were performed on days 3 to 5 after the micro-injection of mRNA. During the experiment the oocytes were constantly superfused by a solution containing (in mM) NaCl 90, KCl 1, HEPES 5, MgCl2 1, CaCl2 1 (pH 7.4). Oocytes were impaled by two glass microelectrodes (resistance: 0.4 MQ) which were filled with a solution containing KCl 1M+K-acetate 1.5 M and voltage-clamped to −80 mV. The recordings were performed at room temperature using the Roboocyte two-electrode voltage clamp system (Multichannelsystem). After an initial equilibration period of 1.5 min GABA was added for 1.5 min at a concentration evoking approximately 20% of a maximal current response (EC20). After another rest interval of 2.5 min GABA was again added evoking a response of similar amplitude and shape. 0.5 min after the onset of this second GABA application the test compound, at a concentration corresponding to approximatively 30 fold its Ki, was added while GABA was still present. Current traces were recorded at a digitization rate of 10 Hz during and shortly before and after the GABA application.
Each compound and concentration was tested on at least 3 oocytes. Different oocytes were used for different compound concentrations. β-CCM, a negative allosteric modulator, or Midazolam, a positive allosteric modulators, were tested on a few (3-6) oocytes on each 96-well plate for a positive control at a maximally effective. β-CCM inhibited the GABA-evoked current by approximatively 50% (Fold increase 0.5), while Midazolam potentiated the GABA-induced current by approximatively 150% (Fold increase 2.5).
For the analysis, the digitized current traces of the first and second GABA response were superimposed and, if necessary, rescaled to equal maximal amplitudes. The ratio between the two responses during the time interval of test compound application was calculated point by point. The extremum of the resulting “ratio trace” was taken as the efficacy (“Fold increase”) of the compound expressed as “% modulation of GABA EC20” (100*(Fold increase-1)).

h-GABA-A α5β3γ2 [2] = target: T1, h-GABA-A α5β3γ2; test: [3H]flumazenil competition binding assay on membranes of HEK293 cells expressing GABAA receptors
Protocol: The affinity of compounds at GABAA receptor subtypes was measured by competition for [3H]flumazenil (85 Ci/mmol; Roche) binding to HEK293 cells expressing rat (stably transfected) or human (transiently transfected) receptors of composition α1β3γ2, α2β3γ2, α3β3γ2 and α5β3γ2.
Cell pellets were suspended in Krebs-tris buffer (4.8 mM KCl, 1.2 mM CaCl2, 1.2 mM MgCl2, 120 mM NaCl, 15 mM Tris; pH 7.5; binding assay buffer), homogenized by polytron for ca. 20 sec on ice and centrifuged for 60 min at 4° C. (50000 g; Sorvall, rotor: SM24=20000 rpm). The cell pellets were resuspended in Krebs-tris buffer and homogenized by polytron for ca. 15 sec on ice. Protein was measured (Bradford method, Bio-Rad) and aliquots of 1 mL were prepared and stored at −80° C.
Radioligand binding assays were carried out in a volume of […] (96-well plates) which contained […] of cell membranes, [^3H]-Flumazenil at a concentration of 1 nM for α1, α2, α3 subunits and 0.5 nM for α5 subunits and the test compound in the range of […]. Nonspecific binding was defined by 10^−5 M diazepam and typically represented less than 5% of the total binding. Assays were incubated to equilibrium for 1 hour at 4° C. and harvested onto GF/C uni-filters (Packard) by filtration using a Packard harvester and washing with ice-cold wash buffer (50 mM Tris; pH 7.5). After drying, filter-retained radioactivity was detected by liquid scintillation counting. Ki values were calculated using Excel-Fit (Microsoft) and are the means of two determinations.
In a preferred embodiment the compounds of the invention are binding selective for the α5 subunit relative to the α1, α2 and α3 subunit. Representative test results, obtained by the above described assay measuring binding affinity to HEK293 cells expressing human (h) receptors, are shown in the Table below.

[3] = Table 2, reference compounds, % modulation of GABA EC20
[4] = Table 2, reference compounds, GABAA α5β3γ2 overexpressing oocytes, GABA EC20
[5] = Table 2, reference compounds, displacement of [3H]-Flumazenil
[6] = Table 1, % modulation of GABA EC20 = 100*(Fold increase-1)
[7] = Table 1, Xenopus oocytes, GABA EC20, test compound at approximatively 30 fold its Ki
[8] = Table 1, displacement of [3H]-Flumazenil (0.5 nM), HEK293 cells expressing human receptors, means of two determinations
[9] = positive control, maximally effective concentration, 3-6 oocytes per 96-well plate
[10] = maximally effective concentration

Row | Compound | Efficacy (GABA) % (h-GABA-A α5β3γ2 [1]; [6]) [%] | Fold increase h-GABA-A α5β3γ2 oocyte (h-GABA-A α5β3γ2 [1]; [7]) | Ki (h-GABA-A α5β3γ2 [2]; [8]) [nM] | other results
1 | Cn1nnc(-c2ccccc2F)c1COc1ccc(-n2cnc(C(F)F)c2)nn1 [RO-007, reference compound] | – | – | – | Efficacy (GABA) % (h-GABA-A α5β3γ2 [1]; [3]): −28%; Fold increase h-GABA-A α5β3γ2 oocyte (h-GABA-A α5β3γ2 [1]; [4]): 0.72; Ki (h-GABA-A α5β3γ2 [2]; [5]): 58.4 nM
2 | Cn1nnc(-c2ccc(Cl)cc2F)c1Cn1ncc(N2CC3(CC[C@H](F)CO3)C2)cc1=O [Example 126, (S)-2-((4-(4-chloro-2-fluorophenyl)-1-methyl-1H-1,2,3-triazol-5-yl)methyl)-5-(7-fluoro-5-oxa-2-azaspiro[3.5]nonan-2-yl)pyridazin-3(2H)-one] | 61 | 1.61 | 17.5 | –
3 | Cc1ncc2n1-c1ccc(Cl)cc1C(c1ccccc1F)=NC2 [Midazolam, reference compound] | – | – | – | potentiated the GABA-induced current (h-GABA-A α5β3γ2 [1]; [9]): ~150%; Fold increase (h-GABA-A α5β3γ2 [1]; [10]): ~2.5
4 | CC(C)O[C@@H]1CCN(c2cnn(Cc3c(-c4ccc(Cl)cc4F)nnn3C)c(=O)c2)C1 [Example 42, 2-((5-(4-chloro-2-fluoro-phenyl)-3-methyl-triazol-4-yl)methyl)-5-((3R)-3-isopropoxy-pyrrolidin-1-yl)pyridazin-3-one] | 71 | 1.71 | 18.3 | –
5 | COC1CN(c2cnn(Cc3c(-c4ccc(Cl)cc4F)nnn3C)c(=O)c2)C1 [Example 26, 2-[[5-(4-chloro-2-fluoro-phenyl)-3-methyl-triazol-4-yl]methyl]-5-(3-methoxyazetidin-1-yl)pyridazin-3-one] | 55 | 1.55 | 12.8 | –
6 | Cn1nnc(-c2ncc(C(F)(F)F)cn2)c1Cn1ncc(N2CC(OCC(F)(F)F)C2)cc1=O [Example 120, 2-[[3-methyl-5-[5-(trifluoromethyl)pyrimidin-2-yl]triazol-4-yl]methyl]-5-[3-(2,2,2-trifluoro-ethoxy)azetidin-1-yl]pyridazin-3-one] | 78 | 1.78 | 27 | –
7 | Cn1nnc(-c2ccc(C(F)(F)F)cc2F)c1Cn1ncc(N2CC(OCC(F)F)C2)cc1=O [Example 76, 5-[3-(2,2-difluoroethoxy)azetidin-1-yl]-2-[[5-[2-fluoro-4-(trifluoromethyl)phenyl]-3-methyl-triazol-4-yl]methyl]pyridazin-3-one] | 115 | 2.15 | 11.6 | –
8 | Cc1ccc(-n2nnc(C)c2Cn2ncc(N3C[C@@H](C)O[C@@H](C)C3)cc2=O)cn1 [Example 1, 5-(cis-2,6-dimethylmorpholin-4-yl)-2-((5-methyl-3-(6-methylpyridin-3-yl)triazol-4-yl)methyl)pyridazin-3-one] | 190 | 2.9 | 34.4 | –
9 | Cc1nnn(-c2ccc(Cl)cc2F)c1Cn1ncc(-c2cnn(C3CC3)c2)cc1=O [Example 65, 2-((3-(4-chloro-2-fluoro-phenyl)-5-methyl-triazol-4-yl)methyl)-5-(1-cyclopropylpyrazol-4-yl)pyridazin-3-one] | 42 | 1.42 | 47.5 | –
10 | CC(C)OC1CN(c2cnn(Cc3c(-c4ncc(C(F)(F)F)cn4)nnn3C)c(=O)c2)C1 [Example 116, 5-(3-isopropoxyazetidin-1-yl)-2-[[3-methyl-5-[5-(trifluoromethyl)pyrimidin-2-yl]triazol-4-yl]methyl]pyridazin-3-one] | 48 | 1.48 | 66.1 | –
11 | CCn1nnc(-c2ccc(Cl)cc2F)c1Cn1ncc(N2CC(OC(C)C)C2)cc1=O [Example 90, 2-[[5-(4-chloro-2-fluoro-phenyl)-3-ethyl-triazol-4-yl]methyl]-5-(3-isopropoxyazetidin-1-yl)pyridazin-3-one] | 96 | 1.96 | 19.4 | –
12 | CN(C)c1cnn(Cc2c(-c3ccc(Cl)cc3)nnn2C)c(=O)c1 [Example 31, 2-[[5-(4-chlorophenyl)-3-methyl-triazol-4-yl]methyl]-5-(dimethylamino)pyridazin-3-one] | 35 | 1.35 | 17.2 | –
13 | Cc1nnn(-c2ccc(Cl)cc2)c1Cn1ncc(N(C)C)cc1=O [Example 13, 2-[[3-(4-chlorophenyl)-5-methyl-triazol-4-yl]methyl]-5-(dimethylamino)pyridazin-3-one] | 31 | 1.31 | 31.9 | –
14 | Cn1nnc(-c2ccc(F)cn2)c1COc1ccc(C(=O)NN2CCOCC2)nn1 [RO-052, reference compound] | – | – | – | Efficacy (GABA) % (h-GABA-A α5β3γ2 [1]; [3]): −15%; Fold increase h-GABA-A α5β3γ2 oocyte (h-GABA-A α5β3γ2 [1]; [4]): 0.85; Ki (h-GABA-A α5β3γ2 [2]; [5]): 33.4 nM
15 | Cn1nnc(-c2ccc(C(F)(F)F)cc2F)c1Cn1ncc(N2CC(Oc3ccc(Cl)nc3)C2)cc1=O [Example 93, 5-[3-[(6-chloro-3-pyridyl)oxy]azetidin-1-yl]-2-[[5-[2-fluoro-4-(trifluoromethyl)phenyl]-3-methyl-triazol-4-yl]methyl]pyridazin-3-one] | 79 | 1.79 | 9.4 | –
16 | COC(=O)c1cc2c(cn1)[nH]c1ccccc12 [β-CCM, reference compound] | – | – | – | inhibited the GABA-evoked current (h-GABA-A α5β3γ2 [1]; [9]): ~50%; Fold increase (h-GABA-A α5β3γ2 [1]; [10]): ~0.5
